Measured values reported in patent publication US8658605B2, “Bioactivity composition of Reevesia formosana” (priority 2011, dated 2014).

How the values were obtained:
[1] = test system: HepG2 (liver hepatocellular cells); assay: MTS reduction assay, cytotoxicity on HepG2 cells; assay type: cell-based, human; settings: HepG2, 72 hours, average of three repeats
Experimental: (§1) MCF-7 (human breast adenocarcinoma), NCI-H460 (non-small-cell lung cancer) and HepG2 (liver hepatocellular cells) were incubated in a modified Dulbecco's Eagle's medium with 10% FBS and nonessential amino acid ([…], Inc) in an incubator with 37° C., 5% CO2/Air. Human cancer cell lines were planted in 96-well plates, and each well which contained the 100 μl medium were planted one of MCF-7 and NCI-H460 with a cell amount of 6500, 2500 and 7500. After overnight incubation, each cell line was administered at least 8 testing compounds with different concentrations individually, and subsequently the cell lines were incubated in the incubator for 72 hours. According to a method of MTS reduction assay, 5-(3-carboxymethoxyphenyl)-2-(4,5-dimethylthiazoyl)-3-(4-sulfophenyl)tetrazolium salt (MTS) was applied on estimating alive cell numbers, and 0.1% DMSO (Promega, Madison, Wis., USA) was a control group because DMSO controlled a result of percentage, the result could be a dose-response curve of IC50 value. […] The IC50 value was an average of three times repeats. The 10000/well HepG2 cells were planted on a 96-well plate and were gone through the same experiences.

[2] = test system: MCF-7 (human breast adenocarcinoma); assay: MTS reduction assay, cytotoxicity on MCF-7 cells; assay type: cell-based; settings: average of three repeats
Experimental: as §1

[3] = test system: NCI-H460 (non-small-cell lung cancer); assay: MTS reduction assay, cytotoxicity on NCI-H460 cells; assay type: cell-based, human; settings: NCI-H460, 72 hours, average of three repeats
Experimental: as §1

Molecule | IC50 [1] | IC50 ([2]; MCF-7, 72 hours) | IC50 [3] | IC50 ([1]; Homo sapiens) | IC50 ([2]; Homo sapiens, MCF7, MCF-7, 72 hours) | IC50 ([3]; Homo sapiens)
reevesioside F [reevesioside F (6)] | 836 ± 33.2 nM | 72 ± 8.1 nM | 20.3 ± 0.4 nM |  |  | 
reevesioside E [reevesioside E (5)] | 40500 ± 6430 nM | 11800 ± 2240 nM | 1770 ± 35.4 nM |  |  | 
COc1cc2c3c(c4cc(OC)c(OC)cc4c2cc1OC)CN1CCC[C@@H]1C3 [tylophorine, reference compound] |  |  |  | 215 ± 14 nM | 236 ± 11 nM | 233 ± 24 nM
COC1C(OC2CCC3(C=O)C4CCC5(C)C(C6=CC(=O)OC6)CCC5(O)C4CCC3(O)C2)OC(C)C(O)C1O (stereo not drawn) [epi-reevesioside F (7), epi-reevesioside F] | 996 ± 92.6 nM | 34.1 ± 5.5 nM | 10.4 ± 0.5 nM |  |  | 
reevesioside C [reevesioside C (3)] | 3740 ± 261 nM | 2040 ± 173 nM | 208 ± 15.6 nM |  |  | 
reevesioside D [reevesioside D (4)] | > 500000 nM | 36400 ± 2580 nM | 3900 ± 316 nM |  |  | 
reevesioside B [reevesioside B (2)] | 4760 ± 202 nM | 3520 ± 72 nM | 431 ± 45.1 nM |  |  | 
C[C@@H]1C[C@H]2OCO[C@H]2[C@H](O[C@H]2CC[C@]3(C=O)[C@H]4CC[C@]5(C)[C@@H](C6=CC(=O)OC6)CC[C@]5(O)[C@@H]4CC[C@]3(O)C2)O1 [reevesioside A (1), reevesioside A] | 368 ± 29.9 nM | 63.2 ± 2.1 nM | 19.3 ± 0.5 nM |  |  | 
